Reference: patent publication US10106530B2, “Pyrazolyl substituted tetrahydropyranylsulfones” (GRÜNENTHAL GMBH, priority 2015, dated 2018)

Molecular target: T1, Human CaV2.2 channels (Homo sapiens, UniProt Q00975)
T1 construct: expressed in transfected cells; also stably expressing Kir2.3)
Assay: Fluorescence assay for CaV2.2 channels using potassium depolarization to induce channel opening (FLIPR, Fluo 4)
Assay type: cell-based
Details: 30 mM KCl assay buffer (inactivated channel state), HEK293 cells; for inhibition at 3 µM: HEK293, 3 μM test compound, read-out: Activity Category: %-Inhib (CaV2.2) @3 μM @30 mM KCl; for Activity Category: %-Inhib (CaV2.2) @3 μM @30 mM KCl: 3 μM test compound
Source text: In the process, the Ca^2+ influx is quantified in the FLIPR assay with the aid of a Ca^2+-sensitive dye (type Fluo-4, Molecular Probes Europe BV, Leiden, the Netherlands) in a fluorescent imaging plate reader (FLIPR 3, Molecular Devices, Sunnyvale, USA), as described hereinafter.
[drawing 69] 2. Assay Descriptions and Biological Data: 2.1 Fluorescence Assay for CaV2.2 Channels Using Potassium Depolarization to Induce Channel Opening
Human CaV2.2 channels were stably expressed in HEK293 cells together with alpha2-delta and beta subunits of voltage gated calcium channels. In addition, an inwardly rectifying potassium channel (Kir2.3) was stably expressed in these cells to augment control of the cell membrane potential by the concentration of extracellular potassium ions. Raise of the extracellular potassium concentration leads to depolarization of the membrane potential and thus regulates the voltage dependent state of CaV2.2 channels. For preparation, cells were seeded in black poly-D-lysine coated 96-well plates (Becton Dickinson, Biocoat 4640) in 100 μL medium [500 mL DMEM/F-12 plus Glutamax (Invitrogen 31331-093) plus 5.5 mL MEM NEAA 100× (Invitrogen 11140-035) plus 50 mL FBS decomplemented (Invitrogen 10270-106) plus 200 μg/mL Geneticin (Invitrogen 10131-027) plus 50 μg/mL Hygromycin B (Invitrogen 10687-010) plus 2 μg/mL Blasticidin (anti-b15b Invivo-Gen) plus 0.2 μg/mL Puromycin (A 11138-03)] at a cell density of 30.000 cells per well. Plates were incubated at 37° C. (5% CO2) for 20 to 23 h. On the day of experiment medium was discarded and cells were loaded with Fluo 4 by addition of 100 μL of basic assay buffer (10 mM HEPES, 1 mM KCl, 149 mM NaCl, 0.8 mM CaCl2, 1.7 mM MgCl2, 10 mM Glucose, 0.1% BSA. pH 7.4) containing 2 μM Fluo 4 (Molecular Probes; F-14201), 0.01% pluronic acid (Molecular Probes; P-6866) and 2.5 mM probenecid (Molecular Probes; P36400). Cells were incubated in the dark at 25° C. for 60 min. Then dye containing buffer was discarded and 100 μL basic (1 mM KCl) or alternative (30 mM KCl) assay buffer was added. The alternative assay buffer contained altered concentrations of KCl (30 mM) and NaCl (120 mM) and was used in order to promote the inactivated channel state. After that 25 μL of basic or alternative assay buffer with or without test compound were added and cells were incubated again in the dark at 25° C. for 15 min. Fluorescence intensity was measured on a FLIPR 3 instrument (Molecular Devices Corp., Sunnyvale, Calif.) with excitation at 480 nm and emission at 535 nm. After continuously reading fluorescence for 30 sec, 50 μL of basic assay buffer containing 210 mM KCl(NaCl omitted) were added for depolarization. Peak fluorescent signal intensity was determined and the amplitude of the peak signal, normalized to base line, was used to measure channel inhibition by test compounds.

T1 sequence (Q00975 whole entry): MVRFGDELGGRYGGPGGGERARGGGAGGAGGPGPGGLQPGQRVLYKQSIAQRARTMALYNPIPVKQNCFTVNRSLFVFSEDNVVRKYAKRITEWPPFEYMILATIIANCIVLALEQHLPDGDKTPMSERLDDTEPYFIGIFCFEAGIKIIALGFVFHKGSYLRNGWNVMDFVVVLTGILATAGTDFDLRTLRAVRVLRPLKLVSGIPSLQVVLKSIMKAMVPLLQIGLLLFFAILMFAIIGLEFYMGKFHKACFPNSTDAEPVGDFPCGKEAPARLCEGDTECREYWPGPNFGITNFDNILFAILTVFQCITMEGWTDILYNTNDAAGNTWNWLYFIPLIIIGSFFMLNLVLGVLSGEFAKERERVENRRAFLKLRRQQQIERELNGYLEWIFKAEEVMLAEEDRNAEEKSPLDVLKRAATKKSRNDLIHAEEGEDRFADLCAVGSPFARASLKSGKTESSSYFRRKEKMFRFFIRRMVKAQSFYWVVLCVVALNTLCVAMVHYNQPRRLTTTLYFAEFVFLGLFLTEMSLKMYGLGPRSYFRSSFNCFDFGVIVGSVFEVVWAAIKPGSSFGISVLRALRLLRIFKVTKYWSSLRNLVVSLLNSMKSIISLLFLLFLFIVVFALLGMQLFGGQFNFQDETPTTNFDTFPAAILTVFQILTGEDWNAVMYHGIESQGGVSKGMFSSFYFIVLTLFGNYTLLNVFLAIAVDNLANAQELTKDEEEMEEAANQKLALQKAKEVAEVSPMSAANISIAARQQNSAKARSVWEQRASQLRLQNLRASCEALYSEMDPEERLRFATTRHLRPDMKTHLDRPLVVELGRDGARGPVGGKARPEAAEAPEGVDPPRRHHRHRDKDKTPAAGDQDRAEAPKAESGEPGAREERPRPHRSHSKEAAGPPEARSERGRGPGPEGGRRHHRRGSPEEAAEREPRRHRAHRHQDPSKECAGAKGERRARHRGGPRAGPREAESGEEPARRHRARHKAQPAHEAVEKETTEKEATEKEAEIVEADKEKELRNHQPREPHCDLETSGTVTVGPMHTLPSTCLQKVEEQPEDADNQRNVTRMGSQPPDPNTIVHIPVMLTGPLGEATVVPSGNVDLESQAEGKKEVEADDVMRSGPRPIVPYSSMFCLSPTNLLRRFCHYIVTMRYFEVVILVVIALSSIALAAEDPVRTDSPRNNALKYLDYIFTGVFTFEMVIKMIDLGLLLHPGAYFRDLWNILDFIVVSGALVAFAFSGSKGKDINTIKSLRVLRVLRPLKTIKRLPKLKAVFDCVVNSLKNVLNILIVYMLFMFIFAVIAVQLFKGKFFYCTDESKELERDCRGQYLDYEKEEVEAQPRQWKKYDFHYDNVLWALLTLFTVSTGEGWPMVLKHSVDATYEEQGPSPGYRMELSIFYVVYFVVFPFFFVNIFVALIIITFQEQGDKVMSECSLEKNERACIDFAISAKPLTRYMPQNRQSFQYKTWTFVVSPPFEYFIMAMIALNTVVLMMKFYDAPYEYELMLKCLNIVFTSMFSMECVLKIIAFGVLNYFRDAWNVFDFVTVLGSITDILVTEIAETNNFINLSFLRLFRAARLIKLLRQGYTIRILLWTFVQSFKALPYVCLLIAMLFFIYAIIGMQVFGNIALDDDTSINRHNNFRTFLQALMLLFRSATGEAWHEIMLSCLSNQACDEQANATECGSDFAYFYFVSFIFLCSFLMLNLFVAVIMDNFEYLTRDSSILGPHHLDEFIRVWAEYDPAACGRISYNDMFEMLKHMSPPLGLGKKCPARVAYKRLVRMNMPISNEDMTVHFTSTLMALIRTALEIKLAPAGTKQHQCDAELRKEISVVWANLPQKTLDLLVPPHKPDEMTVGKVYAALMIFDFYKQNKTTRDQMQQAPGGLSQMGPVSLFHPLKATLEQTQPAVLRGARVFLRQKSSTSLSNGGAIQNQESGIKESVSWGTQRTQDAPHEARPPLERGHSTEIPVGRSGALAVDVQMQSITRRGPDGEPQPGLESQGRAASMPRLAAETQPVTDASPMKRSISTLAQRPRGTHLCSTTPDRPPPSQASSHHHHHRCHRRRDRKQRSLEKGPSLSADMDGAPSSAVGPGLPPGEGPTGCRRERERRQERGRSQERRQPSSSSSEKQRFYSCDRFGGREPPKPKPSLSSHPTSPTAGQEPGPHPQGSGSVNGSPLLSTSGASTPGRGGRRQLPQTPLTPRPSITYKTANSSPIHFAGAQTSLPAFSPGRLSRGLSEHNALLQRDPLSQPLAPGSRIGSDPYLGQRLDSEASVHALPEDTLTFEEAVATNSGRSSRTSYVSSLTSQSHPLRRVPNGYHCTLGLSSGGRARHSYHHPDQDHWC

SMILES | inhibition at 3 µM | other results
CC(C)(C)CS(=O)(=O)c1cc(C2CC(C)(S(=O)(=O)c3cccc(C(F)(F)F)c3)CCO2)[nH]n1 (stereo not drawn) [Example 36 cis-EN1, 3-(2,2-Dimethyl-propylsulfonyl)-5-[4-methyl-4-[[3-(trifluoromethyl)phenyl]sulfonyl]-tetrahydro-pyran-2-yl]-1H-pyrazole] | 75 to 95% | 
CC(C)(C#N)c1cc(C2CC(C)(S(=O)(=O)c3cccc(C(F)(F)F)c3)CCO2)[nH]n1 (stereo not drawn) [Example 31 cis-EN1, 2-Methyl-2-[5-[4-methyl-4-[[3-(trifluoromethyl)phenyl]sulfonyl]-tetrahydro-pyran-2-yl]-1H-pyrazol-3-yl]-propionitrile] | > 95% | 
CC(C)(O)c1cc(C2CC(C)(S(=O)(=O)c3cccc(C(F)(F)F)c3)CCO2)[nH]n1 (stereo not drawn) [Example 19 cis-EN1, 2-[5-[4-Methyl-4-[[3-(trifluoromethyl)phenyl]sulfonyl]-tetrahydro-pyran-2-yl]-1H-pyrazol-3-yl]-propan-2-ol] |  | Activity Category: %-Inhib (CaV2.2) @3 μM @30 mM KCl (listed as 19 cis-EN1): B (%-Inhibition >75% up to ≤95%)
COCCS(=O)(=O)c1cc(C2CC(C)(S(=O)(=O)c3cccc(C(F)(F)F)c3)CCO2)[nH]n1 (stereo not drawn) [Example 5 cis-EN1, 3-(2-Methoxy-ethylsulfonyl)-5-[4-methyl-4-[[3-(trifluoromethyl)phenyl]sulfonyl]-tetrahydro-pyran-2-yl]-1H-pyrazole] |  | Activity Category: %-Inhib (CaV2.2) @3 μM @30 mM KCl (listed as 5 cis-EN1): B (%-Inhibition >75% up to ≤95%)
CC1(S(=O)(=O)c2cccc(C(F)(F)F)c2)CCOC(c2cc(S(=O)(=O)CC(F)(F)F)n[nH]2)C1 (stereo not drawn) [Example 29 cis-EN1, 5-[4-Methyl-4-[[3-(trifluoromethyl)phenyl]sulfonyl]-tetrahydro-pyran-2-yl]-3-(2,2,2-trifluoro-ethylsulfonyl)-1H-pyrazole] | 75 to 95% | 
CC1(S(=O)(=O)c2cccc(C(F)(F)F)c2)CCOC(c2cc(C3(O)COC3)n[nH]2)C1 (stereo not drawn) [Example 18 cis-EN1, 3-[5-[4-Methyl-4-[[3-(trifluoromethyl)phenyl]sulfonyl]-tetrahydro-pyran-2-yl]-1H-pyrazol-3-yl]-oxetan-3-ol] | 40 to 75% | 
COCCS(=O)(=O)c1cc(C2CC(C)(S(=O)(=O)c3cccc(C(F)(F)F)c3)CCO2)[nH]n1 (stereo not drawn) [Example 5 cis-EN2, 3-(2-Methoxy-ethylsulfonyl)-5-[4-methyl-4-[[3-(trifluoromethyl)phenyl]sulfonyl]-tetrahydro-pyran-2-yl]-1H-pyrazole] |  | Activity Category: %-Inhib (CaV2.2) @3 μM @30 mM KCl (listed as 5 cis-EN2): C (%-Inhibition >40% up to ≤75%)
CC1(S(=O)(=O)c2cccc(C(F)(F)F)c2)CCOC(c2cc(C(F)F)[nH]n2)C1 (racemic) [[trans-rac] Example 12, 5-(Difluoro-methyl)-3-[4-methyl-4-[[3-(trifluoromethyl)phenyl]sulfonyl]-tetrahydro-pyran-2-yl]-1H-pyrazole] | 75 to 95% | 
CC1(S(=O)(=O)c2cccc(C(F)(F)F)c2)CCOC(c2cc(S(=O)(=O)C(F)(F)F)n[nH]2)C1 (stereo not drawn) [Example 27 cis-EN1, 3-(Trifluoro-methylsulfonyl)-5-[4-methyl-4-[[3-(trifluoromethyl)phenyl]sulfonyl]-tetrahydro-pyran-2-yl]-1H-pyrazole] | > 95% | 
CC1(S(=O)(=O)c2cccc(C(F)(F)F)c2)CCOC(c2cc(S(=O)(=O)C3COC3)n[nH]2)C1 (stereo not drawn) [Example 4 cis-EN1, 5-[4-Methyl-4-[[3-(trifluoromethyl)phenyl]sulfonyl]-tetrahydro-pyran-2-yl]-3-(oxetan-3-ylsulfonyl)-1H-pyrazole] |  | Activity Category: %-Inhib (CaV2.2) @3 μM @30 mM KCl (listed as 4 cis-EN1): C (%-Inhibition >40% up to ≤75%)
CC(C)(C#N)c1cc(C2CC(C)(S(=O)(=O)c3cccc(C(F)(F)F)n3)CCO2)[nH]n1 (stereo not drawn) [Example 38 cis-EN1, 2-Methyl-2-[5-[4-methyl-4-[[6-(trifluoromethyl)-pyridin-2-yl]sulfonyl]-tetrahydro-pyran-2-yl]-1H-pyrazol-3-yl]-propionitrile] |  | Activity Category: %-Inhib (CaV2.2) @3 μM @30 mM KCl (listed as 38 cis-EN1): C (%-Inhibition >40% up to ≤75%)
C[C@@]1(S(=O)(=O)c2cccc(C(F)(F)F)c2)CCO[C@@H](c2cc(S(=O)(=O)C(F)F)n[nH]2)C1 (racemic) [[trans-rac] Example 1, 3-(Difluoro-methylsulfonyl)-5-[4-methyl-4-[[3-(trifluoromethyl)phenyl]sulfonyl]-tetrahydro-pyran-2-yl]-1H-pyrazole] | 75 to 95% | 
CC1(S(=O)(=O)c2cccc(C(F)(F)F)c2)CCOC(c2cc(S(C)(=O)=O)n[nH]2)C1 (stereo not drawn) [Example 37 cis-EN2, 5-Methylsulfonyl-3-[4-methyl-4-[[3-(trifluoromethyl)phenyl]sulfonyl]-tetrahydro-pyran-2-yl]-1H-pyrazole] |  | Activity Category: %-Inhib (CaV2.2) @3 μM @30 mM KCl (listed as 37 cis-EN2): B (%-Inhibition >75% up to ≤95%)
CC(F)(F)c1cc(C2CC(C)(S(=O)(=O)c3cccc(C(F)(F)F)c3)CCO2)[nH]n1 (stereo not drawn) [Example 13 cis-EN1, 3-(1,1-Difluoro-ethyl)-5-[4-methyl-4-[[3-(trifluoromethyl)phenyl]sulfonyl]-tetrahydro-pyran-2-yl]-1H-pyrazole] | > 95% | 
CC1(S(=O)(=O)c2cccc(C(F)(F)F)c2)CCOC(c2cc(CCS(C)(=O)=O)n[nH]2)C1 (stereo not drawn) [Example 9 cis-EN1, 3-(2-Methylsulfonyl-ethyl)-5-[4-methyl-4-[[3-(trifluoromethyl)phenyl]sulfonyl]-tetrahydro-pyran-2-yl]-1H-pyrazole] | 40 to 75% | 
CC1(S(=O)(=O)c2cccc(C(F)(F)F)c2)CCOC(c2cc(CC(F)(F)F)n[nH]2)C1 (racemic) [Example 15 cis-rac, 5-[4-Methyl-4-[[3-(trifluoromethyl)phenyl]sulfonyl]-tetrahydro-pyran-2-yl]-3-(2,2,2-trifluoro-ethyl)-1H-pyrazole] | > 95% | 
CC1(S(=O)(=O)c2cccc(C(F)(F)F)c2)CCOC(c2cc(C(F)F)[nH]n2)C1 (stereo not drawn) [[cis-EN2] Example 12] [5-(Difluoro-methyl)-3-[4-methyl-4-[[3-(trifluoromethyl)phenyl]sulfonyl]-tetrahydro-pyran-2-yl]-1H-pyrazole] |  | Activity Category: %-Inhib (CaV2.2) @3 μM @30 mM KCl: A (%-Inhibition >95%)
CC1(S(=O)(=O)c2cccc(C(F)(F)F)c2)CCOC(c2cc(S(C)(=O)=O)n[nH]2)C1 (stereo not drawn) [Example 37 cis-EN1, 5-Methylsulfonyl-3-[4-methyl-4-[[3-(trifluoromethyl)phenyl]sulfonyl]-tetrahydro-pyran-2-yl]-1H-pyrazole] |  | Activity Category: %-Inhib (CaV2.2) @3 μM @30 mM KCl (listed as 37 cis-EN1): C (%-Inhibition >40% up to ≤75%)
CC(C)(C)CS(=O)(=O)c1cc(C2CC(C)(S(=O)(=O)c3cccc(C(F)(F)F)c3)CCO2)[nH]n1 (stereo not drawn) [Example 36 cis-EN2, 3-(2,2-Dimethyl-propylsulfonyl)-5-[4-methyl-4-[[3-(trifluoromethyl)phenyl]sulfonyl]-tetrahydro-pyran-2-yl]-1H-pyrazole] |  | Activity Category: %-Inhib (CaV2.2) @3 μM @30 mM KCl: A (%-Inhibition >95%)
CC1(S(=O)(=O)c2cccc(C(F)(F)F)c2)CCOC(c2cc(C(F)F)[nH]n2)C1 (stereo not drawn) [[cis-EN1] Example 12, 5-(Difluoro-methyl)-3-[4-methyl-4-[[3-(trifluoromethyl)phenyl]sulfonyl]-tetrahydro-pyran-2-yl]-1H-pyrazole] | 75 to 95% | 
CC(C)(c1cc(C2CC(C)(S(=O)(=O)c3cccc(C(F)(F)F)c3)CCO2)[nH]n1)S(C)(=O)=O (stereo not drawn) [Example 7 cis-EN1, 3-(1-Methyl-1-methylsulfonyl-ethyl)-5-[4-methyl-4-[[3-(trifluoromethyl)phenyl]sulfonyl]-tetrahydro-pyran-2-yl]-1H-pyrazole] | 75 to 95% | 
